Measurements taken from patent US20250332125A1, “TREATMENT OF MODERATE AND SEVERE GASTROPARESIS” (priority 2016, published 2025).

Tests used:
Assay type in all cases: in vivo, human
[1] = tested on: adult female subjects with diabetic gastroparesis; assay: Phase 3 multicenter, randomized, double-blind, placebo-controlled study of metoclopramide nasal spray: symptom efficacy (GSA scores); parameters: Estimated Mean Change from Baseline in Mean Daily GSA Total Scores (LSMean from ANCOVA) / Mean Change from Baseline in Mean Daily Nausea Score (LSMean from ANCOVA): scale not given here; conditions: for Mean Change from Baseline in Mean Daily Nausea Score (LSMean from ANCOVA) / Mean Change from Baseline in Mean Daily Upper Abdominal Pain Score (LSMean from ANCOVA): ITT Population with Moderate to Severe Symptoms; for Estimated Mean Change from Baseline in Mean Daily GSA Total Scores (LSMean from ANCOVA): Baseline GSA >2.7 (BOCF)
Method: A multicenter, randomized, double-blind, placebo-controlled clinical study of intranasal metoclopramide (“IN MCP”) in female diabetic gastroparesis patients was carried out. The study explored the use of IN MCP for the relief of symptoms associated with acute and recurrent diabetic gastroparesis in adult women. […] The study was a U.S. multicenter, randomized, double-blind, placebo-controlled, parallel-group study of the efficacy and safety of IN MCP compared to placebo in adult female subjects with diabetic gastroparesis. Diabetic women with clinical symptoms attributed to diabetic gastroparesis, and documentation of delayed gastric emptying who met the protocol-specified entry criteria were randomized 1:1 in a parallel-group design to IN MCP (10 mg metoclopramide) or placebo administered as a single nasal spray four times daily; 30 minutes before meals and at bedtime for a total of four weeks. Eligible patients received a dose of IN MCP or placebo 30 minutes before meals and at bedtime daily. A total of 205 female gastroparesis patients were enrolled. Of the total, nearly half had been identified as having moderate to severe gastroparesis. […] Diabetic women with clinical symptoms attributed to diabetic gastroparesis and documentation of delayed gastric emptying who met the protocol-specified entry criteria were randomized to Metoclopramide Nasal Spray 10 mg or placebo administered as a single intranasal spray four (4) times daily; 30 minutes before meals and at bedtime for a total of four (4) weeks. Inclusion criteria included prior diagnosis of Type 1 or Type 2 diabetes, and diagnosis of diabetic gastroparesis with delayed gastric emptying. […]

[2] = Phase 3 study of metoclopramide nasal spray: safety, treatment-emergent adverse events
Method: The study was a U.S. multicenter, randomized, double-blind, placebo-controlled, parallel-group study of the efficacy and safety of IN MCP compared to placebo in adult female subjects with diabetic gastroparesis. Diabetic women with clinical symptoms attributed to diabetic gastroparesis, and documentation of delayed gastric emptying who met the protocol-specified entry criteria were randomized 1:1 in a parallel-group design to IN MCP (10 mg metoclopramide) or placebo administered as a single nasal spray four times daily; 30 minutes before meals and at bedtime for a total of four weeks. Eligible patients received a dose of IN MCP or placebo 30 minutes before meals and at bedtime daily.
Diabetic women with clinical symptoms attributed to diabetic gastroparesis and documentation of delayed gastric emptying who met the protocol-specified entry criteria were randomized to Metoclopramide Nasal Spray 10 mg or placebo administered as a single intranasal spray four (4) times daily; 30 minutes before meals and at bedtime for a total of four (4) weeks.

[3] = Tardive dyskinesia reports over the clinical development program; conditions: 1,311 exposed healthy volunteers and patients over the clinical development program
[4] = Week 1, 10 mg intranasal four times daily, N = 52
[5] = Week 2, 10 mg intranasal four times daily, N = 52
[6] = Week 3, 10 mg intranasal four times daily, N = 52
[7] = Week 4, 10 mg intranasal four times daily, N = 52
[8] = 10 mg intranasal four times daily, 4 weeks, N = 102

CCN(CC)CCNC(=O)c1cc(Cl)c(N)cc1OC [IN MCP, 4-amino-5-chloro-N-[2-(diethylamino)ethyl]-2-methoxybenzamide]
Mean Change from Baseline in Mean Daily Nausea Score (LSMean from ANCOVA) [1, 4]: −0.859
Mean Change from Baseline in Mean Daily Upper Abdominal Pain Score (LSMean from ANCOVA) [1, 4]: −0.641
Mean Change from Baseline in Mean Daily Nausea Score (LSMean from ANCOVA) [1, 5]: −1.149
Mean Change from Baseline in Mean Daily Upper Abdominal Pain Score (LSMean from ANCOVA) [1, 5]: −0.990
Mean Change from Baseline in Mean Daily Nausea Score (LSMean from ANCOVA) [1, 6]: −1.242
Mean Change from Baseline in Mean Daily Upper Abdominal Pain Score (LSMean from ANCOVA) [1, 6]: −1.194
Mean Change from Baseline in Mean Daily Nausea Score (LSMean from ANCOVA) [1, 7]: −1.404
Mean Change from Baseline in Mean Daily Upper Abdominal Pain Score (LSMean from ANCOVA) [1, 7]: −1.218
Estimated Mean Change from Baseline in Mean Daily GSA Total Scores (LSMean from ANCOVA) ([1]; ITT, Week 1, 10 mg intranasal four times daily, N = 52): −0.588
Estimated Mean Change from Baseline in Mean Daily GSA Total Scores (LSMean from ANCOVA) ([1]; ITT, Week 2, 10 mg intranasal four times daily, N = 52): −0.950
Estimated Mean Change from Baseline in Mean Daily GSA Total Scores (LSMean from ANCOVA) ([1]; ITT, Week 3, 10 mg intranasal four times daily, N = 52): −1.096
Estimated Mean Change from Baseline in Mean Daily GSA Total Scores (LSMean from ANCOVA) ([1]; ITT, Week 4, 10 mg intranasal four times daily, N = 52): −1.220
Estimated Mean Change from Baseline in Mean Daily GSA Total Scores (LSMean from ANCOVA) ([1]; Per Protocol, Week 1, 10 mg intranasal four times daily, N = 38): −0.623
Estimated Mean Change from Baseline in Mean Daily GSA Total Scores (LSMean from ANCOVA) ([1]; Per Protocol, Week 2, 10 mg intranasal four times daily, N = 38): −1.040
Estimated Mean Change from Baseline in Mean Daily GSA Total Scores (LSMean from ANCOVA) ([1]; Per Protocol, Week 3, 10 mg intranasal four times daily, N = 38): −1.286
Estimated Mean Change from Baseline in Mean Daily GSA Total Scores (LSMean from ANCOVA) ([1]; Per Protocol, Week 4, 10 mg intranasal four times daily, N = 38): −1.373
Efficacy versus placebo, change from baseline ([1]; all enrolled patients across all severities of disease (205 female patients), 10 mg intranasal q.i.d.): no statistically significant change from baseline in efficacy versus placebo
Efficacy compared to placebo ([1]; mild gastroparesis, intranasal, same treatment regimen): did not demonstrate statistically significant efficacy
Improvements in nausea and abdominal pain ([1]; patient segment with moderate to severe symptoms of gastroparesis, versus placebo): clinically and statistically significant improvements
Efficacy versus placebo (post-hoc analysis) ([1]; patients who entered the study with moderate to severe gastroparesis, 10 mg intranasal q.i.d.): statistically significant efficacy
Treatment-Emergent Adverse Event Epistaxis, number of subjects [2, 8]: 1 (1%)
Treatment-Emergent Adverse Event Epistaxis, percent of subjects [2, 8]: 1 (1%)
Treatment-Emergent Adverse Event Fatigue, number of subjects [2, 8]: 2 (2%)
Treatment-Emergent Adverse Event Fatigue, percent of subjects [2, 8]: 2 (2%)
Treatment-Emergent Adverse Event Headache, number of subjects [2, 8]: 5 (5%)
Treatment-Emergent Adverse Event Headache, percent of subjects [2, 8]: 5 (5%)
Treatment-Emergent Adverse Event Nasal discomfort, number of subjects [2, 8]: 1 (1%)
Treatment-Emergent Adverse Event Nasal discomfort, percent of subjects [2, 8]: 1 (1%)
Central nervous system (CNS) effects that have been associated with oral and parenteral metoclopramide ([2]; delivered as a nasal spray): no central nervous system (CNS) effects observed
Drug-related adverse effects ([2]; intranasal): no reported drug-related adverse effects
Overall safety results ([2]; nasal spray 10 mg four times daily, 4 weeks): no significant adverse effects
Reports of tardive dyskinesia [3]: no reports of tardive dyskinesia
